These molecules were tested on HCT116 cells (assay: Cell viability assay (CellTiter-Glo, 72 hours) in HCT116 human colorectal cancer cells). Conditions: Homo sapiens, HCT-116; Table 5; HCT116, 72 hours; read-out: Activity.
Type: cell-based
How it was run: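 2,000 cells/well adhered overnight, then compound added by digital dispenser with DMSO normalized to 0.5%. Viability read after 72 h at 37 °C by ATP-based CellTiter-Glo luminescence. IC50 from ten-point curves baseline-corrected to vehicle, five-parameter asymmetric least-squares fit.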
`CCC/C=C/CN1C(=O)c2ccccc2Sc2cc(Nc3ncc(C)cc3C)ccc21` [(E)-7-((3,5-Dimethylpyridin-2-yl)amino)-10-(hex-2-en-1-yl)dibenzo[b,f][1,4]thiazepin-11 (10H)-one] was tested, and the IC50 was under 500 nM.
In the case of `CC#CCN1C(=O)c2ccccc2Cc2cc(Nc3ncccc3C)ccc21` [5-(But-2-yn-1-yl)-2-((3-methylpyridin-2-yl)amino)-5H-dibenzo[b,e]azepin-6 (11H)-one], the IC50 is reported as under 500 nM.
`CC#CCN1C(=O)c2ccccc2Sc2cc(Nc3nnccc3C)ccc21` [10-(But-2-yn-1-yl)-7-((4-methylpyridazin-3-yl)amino)dibenzo[b,f][1,4]thiazepin-11 (10H)-one] showed an IC50 of under 500 nM.
In the case of `CC#CCN1C(=O)c2ccccc2Sc2cc(Nc3nc(C)ccc3F)ccc21` [10-(But-2-yn-1-yl)-7-((3-fluoro-6-methylpyridin-2-yl)amino)dibenzo[b,f][1,4]thiazepin-11 (10H)-one], the IC50 is reported as under 500 nM.

Same assay, conditions: Homo sapiens, HCT-116; Table 6; HCT116, 72 hours; read-out: Activity
`CC#CCN1C(=O)c2ccccc2Sc2cc(NCC3COC3)ccc21` [10-(But-2-yn-1-yl)-7-((oxetan-3-ylmethyl)amino)dibenzo[b,f][1,4]thiazepin-11 (10H)-one] was tested, and the IC50 was 1000 to 5000 nM.
`CC#CCN1C(=O)c2ccccc2Sc2cc(NC3CCCOC3)ccc21` (stereo not drawn) [10-(But-2-yn-1-yl)-7-((tetrahydro-2H-pyran-3-yl)amino)dibenzo[b,f][1,4]thiazepin-11 (10H)-one] gave an IC50 of under 500 nM.

Same assay, conditions: Homo sapiens, HCT-116; Table 9; HCT116, 72 hours; read-out: Activity
`COc1ccc(C(=O)Nc2ccc3c(c2)Cc2ccccc2C(=O)N3CC#CC(F)(F)F)cc1` [Table 9: —CH2CCCF3; 4-MeOPh; CH2, 4-Methoxy-N-(6-oxo-5-(4,4,4-trifluorobut-2-yn-1-yl)-6, 11-dihydro-5H-dibenzo[b,e]azepin-2-yl)benzamide] was tested, and the IC50 was under 500 nM.

Same assay, conditions: Table 1; HCT116, 72 hours; read-out: Activity
Molecule `CC#CCN1C(=O)c2ccccc2Sc2cc(NC(=O)N3CCCCC3)cnc21` [Table 1: —CH2CCMe; piperidin-1-yl; CH; N] has an IC50 of under 500 nM.

Same assay, conditions: Table 2; HCT116, 72 hours; read-out: Activity
For `CC#CCN1C(=O)c2ccccc2Sc2cc(NC(=S)N3CCCCC3)cnc21` [Table 2: —CH2CCMe; piperidin-1-yl; CH; N], the IC50 was under 500 nM.

Same assay, conditions: Table 3; HCT116, 72 hours; read-out: Activity
For `CC#CCN1C(=O)c2ccccc2Sc2cc(NC(=O)NC3CC(COC)C3)ccc21` (stereo not drawn) [Table 3: —CH2CCMe; 3-MeOCH2-cBu; CH/CH], the IC50 was under 500 nM.

Same assay, conditions: Table 4; HCT116, 72 hours; read-out: Activity
For `CC#CCN1C(=O)c2ccccc2Sc2cc(NC(=S)Nc3cccc(OC)c3)cnc21` [Table 4: —CH2CCMe; 3-MeOPh; N], the IC50 was under 500 nM.
`CC#CCN1C(=O)c2ccccc2Sc2cc(NC(=S)Nc3ccc(OC(F)F)cc3)cnc21` [Table 4: —CH2CCMe; 4-F2HCOPh; N] showed an IC50 of under 500 nM.
`CC#CCN1C(=O)c2ccccc2Sc2cc(NC(=S)N[C@H]3C[C@@H](OC)C3)cnc21` [Table 4: —CH2CCMe; cis-3-MeOcBu; N] gave an IC50 of under 500 nM.
In the case of `CC#CCN1C(=O)c2ccccc2Sc2cc(NC(=S)N[C@H]3C[C@@H](O)C3)ccc21` [Table 4: —CH2CCMe; cis-3-OH-cBu; CH], the IC50 is reported as under 500 nM.
`CC#CCN1C(=O)c2ccccc2Sc2cc(NC(=S)N[C@H]3C[C@H](OC)C3)ccc21` [Table 4: —CH2CCMe; trans-3-MeOcBu; CH] was tested, and the IC50 was under 500 nM.

Same assay, conditions: Table 5; HCT116, 72 hours; read-out: Activity
With `C#CCN1C(=O)c2ccccc2Sc2cc(Nc3cccnn3)ccc21` the IC50 was under 500 nM.
In the case of `CCC/C=C/CN1C(=O)c2ccccc2Sc2cc(Nc3cc(C(F)(F)F)ccn3)ccc21` [(I)-10-(Hex-2-en-1-yl)-7-((4-(trifluoromethyl)pyridin-2-yl)amino)dibenzo[b,f][1,4]thiazepin-11 (10H)-one], the IC50 is reported as 1000 to 5000 nM.
`C#CCN1C(=O)c2ccccc2Sc2cc(Nc3ncc(C)cc3C)cnc21` showed an IC50 of under 500 nM.
`Cc1cnc(C)c(Nc2ccc3c(c2)Sc2ccccc2C(=O)N3CC#CCl)n1` showed an IC50 of under 500 nM.
Work on `CCCC=CCN1C(=O)c2ccccc2Sc2cc(Nc3ncccc3F)cnc21` yielded an IC50 of under 500 nM.

Same assay, conditions: Table 6; HCT116, 72 hours; read-out: Activity
`CC#CCN1C(=O)c2ccccc2Cc2cc(NCCCO)ccc21` [Table 6: —CH2CCMe; (CH2)3 OH; CH/CH; CH2] gave an IC50 of under 500 nM.

Same assay, conditions: Table 7; cell viability assay, CellTiter-Glo, 72 hours; scaffold drawing 42 with R^2, R^3, X/Y, Z; read-out: Activity
`CCCOc1ccc(C(=O)Nc2ccc3c(c2)Sc2ccccc2C(=O)N3CCOC)cc1` [—(CH2)2OMe; 4-PrOPh; CH/CH; S] gave an IC50 of 1000 to 5000 nM.
`COCCN1C(=O)c2ccccc2Sc2cc(NC(=O)c3cccc(CCC#N)c3)ccc21` [—(CH2)2OMe; 3-(2′-CNEt)Ph; CH/CH; S] was tested, and the IC50 was under 500 nM.
Molecule `CCCOCCN1C(=O)c2ccccc2Sc2cc(NC(=O)c3ccc(OC)cc3)ccc21` [—(CH2)2OPr; 4-MeOPh; CH/CH; S] has an IC50 of under 500 nM.
In the case of `COCCN1C(=O)c2ccccc2Sc2cc(NC(=O)c3ccncn3)ccc21` [—(CH2)2OMe; pyrimidin-4-yl; CH/CH; S], the IC50 is reported as 1000 to 5000 nM.
Work on `COCCN1C(=O)c2ccccc2Sc2cc(NC(=O)c3ccc(OCF)cc3)ccc21` [—(CH2)2OMe; 4-FH2COPh; CH/CH; S] yielded an IC50 of under 500 nM.
With `COCCN1C(=O)c2cc(F)ccc2Sc2cc(NC(=O)c3ccoc3)ccc21` [—(CH2)2OMe; furan-3-yl; CH/CF; S] the IC50 was under 500 nM.
`COCCN1C(=O)c2ccccc2Sc2cc(NC(=O)c3cccc(C(=O)N(C)C)c3)ccc21` [—(CH2)2OMe; 3-Me2NC(O)Ph; CH/CH; S] gave an IC50 of 500 to 1000 nM.
`COCCN1C(=O)c2ccccc2Sc2cc(NC(=O)c3ccc4oc(=O)n(C)c4c3)ccc21` showed an IC50 of 500 to 1000 nM.
`COCCN1C(=O)c2ccccc2Sc2cc(NC(=O)c3ccc(F)c(Cl)c3)ccc21` [—(CH2)2OMe; 3-Cl,4-FPh; CH/CH; S] gave an IC50 of 1000 to 5000 nM.

Same assay, conditions: Table 8; analogs of scaffold drawing 43 defined by R^2, R^3, X/Y, W; read-out: Activity (IC50 class, cell viability assay)
In the case of `CC#CCN1C(=O)c2ccccc2Sc2cc(NC(=O)C=CCO)ccc21` [—CH2CCMe; CH—CHCH2OH; CH/CH; CH], the IC50 is reported as under 500 nM.
For `CC#CCN1C(=O)c2ccc(Cl)cc2Sc2cc(NC(=O)C3CC3CO)cnc21` (racemic) [—CH2CCMe; trans-2-HOCH2-cPr; CCI/CH; N], the IC50 was under 500 nM.
`O=C1CC2(C1)CC(C(=O)Nc1cnc3c(c1)Sc1ccccc1C(=O)N3CC#CC1CC1)C2` was tested, and the IC50 was under 500 nM.
For `CC#CCN1C(=O)c2ccc(Cl)cc2Sc2cc(NC(=O)[C@@H]3C[C@H]3CO)ccc21` (relative stereo) [—CH2CCMe; trans-2-HOCH2-cPr; CCl/CH; CH], the IC50 was under 500 nM.
In the case of `CC#CCN1C(=O)c2cc(F)ccc2Sc2cc(NC(=O)C3CC4(COC4)C3)ccc21`, the IC50 is reported as under 500 nM.
In the case of `CC#CCN1C(=O)c2ccc(Cl)cc2Sc2cc(NC(=O)C=CCO)cnc21` [—CH2CCMe; CH—═CHCH2OH; CCI/CH; N], the IC50 is reported as under 500 nM.
For `CC#CCN1C(=O)c2ccccc2Sc2cc(NC(=O)C#CC)ccc21` [—CH2CCMe; CCMe; CH/CH; CH], the IC50 was under 500 nM.
`CC#CCN1C(=O)c2ccccc2Sc2cc(NC(=O)C#CCOC)ccc21` [—CH2CCMe; CCCH2OMe; CH/CH; CH] gave an IC50 of 500 to 1000 nM.
Molecule `COCC1CC(C(=O)Nc2cnc3c(c2)Sc2ccccc2C(=O)N3CC#CC(F)(F)F)C1` (stereo not drawn) [—CH2CCCF3; 3-MeOCH2-cBu; CH/CH; N] has an IC50 of under 500 nM.
For `O=C(CCCO)Nc1cnc2c(c1)Sc1ccccc1C(=O)N2CC#CC1CC1` [—CH2CC^cPr; (CH2)3OH; CH/CH; N], the IC50 was under 500 nM.
`CO[C@H]1C[C@H](C(=O)Nc2cnc3c(c2)Sc2ccccc2C(=O)N3CC#CCl)C1` [—CH2CCCl; trans-3-MeOcBu; CH/CH; N] was tested, and the IC50 was under 500 nM.
With `CC#CCN1C(=O)c2ccccc2Sc2cc(NC(=O)C3CCCO3)cnc21` (stereo not drawn) [—CH2CCMe; tetrahydrofuran-2-yl; CH/CH; N] the IC50 was under 500 nM.
`CC#CCN1C(=O)c2cc(F)ccc2Sc2cc(NC(=O)C3CCCO3)ccc21` (stereo not drawn) showed an IC50 of under 500 nM.
Molecule `CC#CCN1C(=O)c2ccc(F)cc2Sc2cc(NC(=O)c3cccc(OC)c3)ccc21` [—CH2CCMe; 3-MeOPh; CF/CH; CH] has an IC50 of under 500 nM.
For `COCC1CC(C(=O)Nc2cnc3c(c2)Sc2cc(Cl)ccc2C(=O)N3CC#CCl)C1` (stereo not drawn) [—CH2CCCl; 3-MeOCH2-cBu; CCI/CH; N], the IC50 was under 500 nM.
`CC#CCN1C(=O)c2ccc(Cl)cc2Sc2cc(NC(=O)C3CC4(COC4)C3)cnc21` gave an IC50 of under 500 nM.
Work on `CC#CCN1C(=O)c2ccc(Cl)cc2Sc2cc(NC(=O)C=CCOC)cnc21` [—CH2CCMe; CH—═CHCH2OMe; CCl/CH; N] yielded an IC50 of under 500 nM.
`CC#CCN1C(=O)c2ccccc2Sc2cc(NC(=O)c3ccc(OC)cc3)cnc21` [—CH2CCMe; 4-MeOPh; CH/CH; N] showed an IC50 of under 500 nM.
`CC#CCN1C(=O)c2ccccc2Sc2cc(NC(=O)NCCOC)ccc21` [—CH2CCMe; NH(CH2)2OMe; CH/CH; CH] gave an IC50 of under 500 nM.
Work on `CC#CCN1C(=O)c2ccccc2Sc2cc(NC(=O)C3CC4(COC4)C3)cnc21` yielded an IC50 of under 500 nM.
In the case of `CC#CCN1C(=O)c2cc(F)ccc2Sc2cc(NC(=O)C34CC(O)(C3)C4)ccc21`, the IC50 is reported as under 500 nM.
Work on `CC#CCN1C(=O)c2ccc(Cl)cc2Sc2cc(NC(=O)C3CC4(CC(O)C4)C3)ccc21` (stereo not drawn) yielded an IC50 of under 500 nM.

Same assay, conditions: Table 9; HCT116, 72 hours; read-out: Activity
`CC1c2ccccc2C(=O)N(CC#CC2CC2)c2ccc(NC(=O)C=CCO)cc21` (stereo not drawn) [Table 9: —CH2CC^cPr; CH═CHCH2OH; CHMe] was tested, and the IC50 was under 500 nM.
For `COCC1CC(C(=O)Nc2ccc3c(c2)C(C)(O)c2ccccc2C(=O)N3CC#CCl)C1` (stereo not drawn) [Table 9: —CH2CCCl; 3-MeOCH2-cBu; CMeOH], the IC50 was under 500 nM.
With `CO[C@H]1C[C@@H](C(=O)Nc2ccc3c(c2)C(C#N)c2ccccc2C(=O)N3CC#CC2CC2)C1` (stereo partly drawn) [Table 9: —CH2CCºPr; cis-3-MeOcBu; CHCN] the IC50 was under 500 nM.
`COCC1CC(C(=O)Nc2ccc3c(c2)C(C#N)c2ccccc2C(=O)N3CC#CC2CC2)C1` (stereo not drawn) [Table 9: —CH2CCcPr; 3-MeOCH2-cBu; CHCN] gave an IC50 of under 500 nM.
`CC1c2ccccc2C(=O)N(CC#CC2CC2)c2ccc(NC(=O)C3CC(O)C3)cc21` (stereo not drawn) [Table 9: —CH2CC^cPr; cis-3-OH-cBu; CHMe] gave an IC50 of under 500 nM.
With `CC#CCN1C(=O)c2ccccc2C(C)c2cc(NC(=O)C3CC4(CC(=O)C4)C3)ccc21` (stereo not drawn) the IC50 was under 500 nM.
`CC#CCN1C(=O)c2ccccc2C(C)c2cc(NC(=O)[C@H]3C[C@H](O)C3)ccc21` (stereo partly drawn) [Table 9: —CH2CCMe; trans-3-OH-cBu; CHMe] gave an IC50 of under 500 nM.

Same assay, conditions: cell viability assay; Table 10 analogs of scaffold drawing 45 defined by R2, R3, X/Y, W; read-out: Activity
`CO[C@H]1C[C@H](C(=O)Nc2cnc3c(c2)Sc2ccccc2C(=O)N3CC#CCl)C1` [—CH2CCCl; trans-3-MeOcBu; CH/CH; N] was tested, and the IC50 was under 500 nM.

From patent US20260097047A1, “Small molecule inhibitors of the ribosome biogenesis factor NVL2” (Board of Regents, The University of Texas System, priority 2023, published 2026)
